Experimental data published in patent US10477863B2, “Use of herbicidal compositions for controlling unwanted vegetation” (BASF SE, priority 2015, dated 2019).

Tested on: Amaranthus palmeri
Assay: Field test, post-emergence spray: visual injury of Palmer amaranth rated 0 to 100
Format: in vivo
Conditions: 3 days after treatment, 0.25% non-ionic surfactant
Excerpt: Dicamba was applied as Engenia™ herbicide [BAPMA salt-(bis(3-aminopropyl)methylamine))], while 2,4-DB was applied as the commercially available Butyrac® 200 (dimethylamine salt). Herbicides were applied at an appropriate weight of each product dissolved in 1 liter of water. All herbicide treatments were applied with 0.25% by volume of a non-ionic surfactant (Induce®; an adjuvant composition consisting of alkyl aryl polyoxyalkane ethers, alkanolamides, dimethyl siloxane and free fatty acids). The spray solution was applied by a CO2 powered backpack sprayer delivering the spray solution at a rate of 185 liter/ha. The spray solution was applied to a field naturally populated with Palmer amaranth (Amaranthus palmeri) with an average height of 4-6 inches in height, however, plants both larger and smaller plants were in the field at the time of application as well. Palmer amaranth was assessed for visual injury 3 days after treatment and injury was rated on a scale from 0 to 100, whereby 0 equals no herbicidal response and 100 equals complete control of the Palmer amaranth.

| Compound | herbicidal activity against Amaranthus palmeri (% control), found (dicamba 420 g/ha a.i., Exp. No. 1) | herbicidal activity against Amaranthus palmeri (% control), found (2,4-DB 17.5 g/ha a.i., Exp. No. 2) | herbicidal activity against Amaranthus palmeri (% control), found (2,4-DB 35 g/ha a.i., Exp. No. 3) | herbicidal activity against Amaranthus palmeri (% control), found (2,4-DB 52.5 g/ha a.i., Exp. No. 4) |
| --- | --- | --- | --- | --- |
| COc1c(Cl)ccc(Cl)c1C(=O)O [dicamba, 3,6-Dichloro-2-methoxybenzoic acid] | 60 % control |  |  |  |
| O=C(O)CCCOc1ccc(Cl)cc1Cl [2,4-DB, 4-(2,4-Dichlorophenoxy)butanoic acid] |  | 0 % control | 5 % control | 15 % control |
